Measured values reported in ChEMBL document CHEMBL1139474, “Cellular apoptosis and cytotoxicity of phenolic compounds: a quantitative structure-activity relationship study” (J Med Chem, 2005).

Columns and labels:
L1210 [1] = assay: Activity against caspase-mediated apoptosis in mouse L1210 cells; type: functional
L1210 [2] = assay: Cytotoxicity against mouse L1210 cells; conditions: mouse, l1210
L1210 [3] = assay: Activity against caspase-mediated apoptosis in mouse L1210 cells at 0.1 mM; type: functional

Structure (SMILES) | log(1/ID50) (L1210 [1]) | log(1/ID50) (L1210 [2]) | Activity (L1210 [3])
CC(C)(C)c1cccc(C(C)(C)C)c1O | 1.9 | 3.85 | –
COc1cc(C=O)cc(OC)c1O [SYRINGALDEHYDE] | 2.9 | 3.1 | –
Oc1cccc(O)c1 [RESORCINOL] | 0.79 | 3.46 | <15%
COc1cc(OC)c(O)c(OC)c1 | 2.2 | – | –
COc1cccc(OC)c1O [SYRINGOL] | 2.7 | 3.86 | –
O=Cc1ccc(O)cc1 [4-HYDROXYBENZALDEHYDE] | – | 3.08 | <15%
CCCCCc1ccc(O)cc1 | – | 4.47 | <15%
Oc1ccccc1O [CATECHOL] | – | 3.75 | <15%
CCCCOc1ccc(O)cc1 | 0.14 | 5.2 | <15%
COc1cc(N)cc(OC)c1O | 3.1 | 5.52 | –
Cc1ccc(O)c(C)c1 | – | 3.04 | –
CC(C)(C)c1ccc(O)c(C(C)(C)C)c1 | – | 4.24 | –
CC(C)(C)c1ccccc1O | 2.42 | 4 | <15%
O=[N+]([O-])c1ccccc1O [NITROPHENOLATE] | – | 3.34 | <15%
CC(C)(C)c1cc(C#N)cc(C(C)(C)C)c1O | 2.88 | 4.68 | –
CC(C)(C)c1cccc(O)c1 | – | 3.88 | <15%
Oc1ccccc1I | 2.38 | 3.95 | <15%
O=[N+]([O-])c1cccc(O)c1 [3-NITRO-PHENOL] | 0.79 | 3.48 | <15%
COc1cccc(O)c1 [1-hydroxy-3-methoxybenzene] | 1.31 | 3.71 | <15%
COc1cc(C)cc(OC)c1O | 2.4 | 2.89 | –
Nc1cccc(O)c1 [3-AMINOPHENOL] | 1.25 | – | <15%
Oc1ccc(F)cc1 | – | 3.83 | <15%
CCc1cc(C(C)(C)C)c(O)c(C(C)(C)C)c1 | 2.43 | 3.91 | –
COCc1cc(C(C)(C)C)c(O)c(C(C)(C)C)c1 | 2.9 | 3.93 | –
Cc1cc(C)c(O)c(C)c1 | – | 3.2 | –
COc1ccccc1O [GUAIACOL] | 2.41 | – | <15%
CC(C)Cc1ccccc1O | – | 3.9 | <15%

Structure (SMILES) | log(1/ID50) (L1210 [1]) | log(1/ID50) (L1210 [2]) | Activity (L1210 [3])
Oc1ccccc1F | – | 3.2 | <15%
Oc1cccc(Br)c1 | 1 | 3.82 | <15%
Oc1ccccc1Cl [2-CHLOROPHENOL] | – | 3.22 | <15%
Oc1ccccc1Br | – | 3.44 | <15%
Oc1ccc(Br)cc1 | – | – | <15%
COc1ccccc1O.Cl [GUAIACOL HYDROCHLORIDE] | – | 3.78 | <15%
Nc1cc([N+](=O)[O-])ccc1O [2-AMINO-4-NITROPHENOL] | 2.46 | – | –
COc1cc(C(C)(C)C)c(O)c(C(C)(C)C)c1 | 2.87 | 3.71 | –
CCc1cccc(CC)c1O | – | 3.26 | –
CSc1ccccc1O | – | 3.7 | <15%
Cc1ccc(O)c(N)c1 | 2.09 | – | –
N#Cc1ccccc1O | – | 3.3 | <15%
CC(=O)Nc1ccc(O)cc1 [ACETAMINOPHEN] | – | 3.73 | <15%
CC(C)(C)c1cc(CO)cc(C(C)(C)C)c1O | 2.39 | 3.88 | –
CC(C)(C)c1cc(C=O)cc(C(C)(C)C)c1O | 2.49 | 4.06 | –
CCc1cccc(O)c1 | – | 3.71 | <15%
CC(C)c1ccccc1O | 2.38 | 3.5 | <15%
CCc1ccc(O)c(C(C)(C)C)c1 | – | 3.8 | –
CCCCCCCc1ccc(O)cc1 | – | 4.49 | <15%
COc1cc(NC(C)=O)cc(OC)c1O | 2.5 | 3.99 | –
COc1cc(/C=C/C=O)cc(OC)c1O | 2.6 | 4.25 | –
OCc1ccccc1O [SALICYL ALCOHOL] | – | 2.7 | <15%
CC(=O)c1ccc(O)cc1 [4-HYDROXYACETOPHENONE] | 0.03 | – | <15%
CC(C)(C)c1cc(O)cc(C(C)(C)C)c1O | 2.5 | 4.16 | –
CCc1ccccc1O | 2.11 | – | <15%
CCCCc1ccc(O)cc1 | – | 4.33 | <15%
Oc1cccc(F)c1 | 0.82 | 3.46 | <15%

Structure (SMILES) | log(1/ID50) (L1210 [1]) | log(1/ID50) (L1210 [2]) | Activity (L1210 [3])
CC(C)(C)c1cc(C(C)(C)C)c(O)c(C(C)(C)C)c1 | 2.1 | 5.05 | –
CC(C)(C)c1cc([N+](=O)[O-])cc(C(C)(C)C)c1O | 2.49 | 4.9 | –
CCCc1ccccc1O | 2.16 | 3.49 | <15%
Cc1cc([N+](=O)[O-])ccc1O | – | 3.49 | –
Cc1ccc(O)c(C(C)(C)C)c1 | – | 3.8 | –
Cc1cccc(C(C)(C)C)c1O | – | 3.73 | –
NC(=O)Nc1ccccc1O | – | 3.5 | <15%
CCCCCCCCCc1ccc(O)cc1 [4-NONYLPHENOL] | – | 4.75 | <15%
Oc1ccccc1C(F)(F)F | – | 3.22 | <15%
COc1ccc(O)c(C)c1 | – | 3.39 | –
Cc1cccc(C)c1O | – | 3.02 | –
Cc1cc(F)ccc1O | – | 3.09 | –
CC(C)c1cccc(C(C)C)c1O [PROPOFOL] | – | 3.25 | –
Cc1ccc(O)c(O)c1 | – | 5.03 | –
CC(C)(C)c1ccc(O)cc1.Cl | – | – | <15%
CC(=O)c1cc(C(C)(C)C)c(O)c(C(C)(C)C)c1 | 2.41 | 3.94 | –
CCOc1ccccc1O [1-hydroxy-2-ethoxybenzene] | – | 3.25 | <15%
CC(=O)c1ccc(O)c(C)c1 | – | 3.14 | –
CN(C)c1cccc(O)c1 | – | 4.11 | <15%
CC(=O)Oc1cc(C(C)(C)C)c(O)c(C(C)(C)C)c1 | 2.8 | 4.35 | –
Cc1cc(Br)ccc1O | – | 3.46 | –
CC(C)(C)c1ccc(O)cc1 | – | – | <15%
Cl.Nc1cccc(O)c1 [3-AMINOPHENOL HYDROCHLORIDE] | – | 4.11 | <15%
Oc1cccc(Cl)c1 | – | – | <15%
COc1cc(C(C)=O)cc(OC)c1O [ACETOSYRINGONE] | 2.8 | 3.06 | –
Oc1ccc(O)cc1 [HYDROQUINONE] | – | 4.59 | <15%
